Consider 1 compound from PMC8881610 (Nature Communications, 2022).

The Emax is the size of the effect at its maximum, as opposed to the concentration needed.

Holding throughout (type): cell-based
For experiment [1], the target named is T1, GIPR (Homo sapiens, UniProt P48546, Y141A).
T1 sequence (P48546 22-466 Y141A): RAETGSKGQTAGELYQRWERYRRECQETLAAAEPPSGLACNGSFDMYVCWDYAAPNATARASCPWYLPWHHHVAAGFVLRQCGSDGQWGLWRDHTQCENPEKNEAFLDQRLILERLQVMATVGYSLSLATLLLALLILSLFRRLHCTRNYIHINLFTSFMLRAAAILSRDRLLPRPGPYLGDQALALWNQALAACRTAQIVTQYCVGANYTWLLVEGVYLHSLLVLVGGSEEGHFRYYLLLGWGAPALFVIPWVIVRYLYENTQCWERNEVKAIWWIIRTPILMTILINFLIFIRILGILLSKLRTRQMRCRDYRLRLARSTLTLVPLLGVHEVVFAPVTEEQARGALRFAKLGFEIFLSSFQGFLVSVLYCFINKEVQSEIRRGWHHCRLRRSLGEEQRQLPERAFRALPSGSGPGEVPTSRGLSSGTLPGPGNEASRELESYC
The experiment in a line: cAMP accumulation assay (LANCE Ultra cAMP kit), GIPR WT, mutant or modified constructs. Set-up: acylated tirzepatide to the full-length or modified; Flag; expressed in transfected cells; host or cells: HEK293T. The following applies: GIPR Y141A, HEK293T. An outline of the steps:
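HEK293T cells transiently transfected with human GIPR WT or mutant constructs (pcDNA3.1), used after 24 h. The cells were stimulated with peptide agonists for 40 min at RT in HBSS with 5 mM HEPES, 0.1% BSA or casein, and 0.5 mM IBMX. cAMP was read by LANCE Ultra TR-FRET (Eu-cAMP tracer/ULight anti-cAMP, 1 h RT, 620/650 nm).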

Experiment [2] concerns the target GCGR (Homo sapiens, UniProt P47871, Q293A). As to the kind of experiment: cAMP accumulation assay, GCGR WT, mutant or modified constructs. Set-up: V5 (C); 6×His (C); expressed in transfected cells; host or cells: HEK293T. The following applies: GCGR Q293A, HEK293T. The protocol:
(§1) Human embryonic kidney 293 cells containing SV40 large T-antigen (HEK293T) were cultured in DMEM (Gibco) supplemented with 10% (v/v) fetal bovine serum (FBS, Gibco), 1 mM sodium pyruvate (Gibco) and 100 units/mL penicillin and 100 μg/mL streptomycin at 37 °C in 5% CO2. Chinese hamster ovary (CHO-K1) cells were cultured in F-12 (Gibco) containing 10% FBS, 100 units/mL penicillin and 100 μg/mL streptomycin at 37 °C in 5% CO2. For cAMP and receptor expression assays, HEK293T cells were seeded into 6-well cell culture plates at a density of 7 × 10^5 cells per well. After overnight incubation, cells were transfected with GIPR, GLP-1R or GCGR construct using Lipofectamine 2000 or Lipofectamine 3000 transfection reagent (Invitrogen). For whole-cell binding assay, CHO-K1 cells were seeded into 96-well fibronectin-treated cell culture plates at a density of 3 × 10^4 cells per well. After overnight incubation, cells were transfected with GIPR, GLP-1R or GCGR construct using Lipofectamine 2000 transfection reagent (Invitrogen). Following 24 h culturing, the transfected cells were ready for use. […]
(§2) For GIPR, GLP-1R and GCGR, multi-targeting agonist stimulated cAMP accumulation was measured by a LANCE Ultra cAMP kit (PerkinElmer). After 24 h culture, the transfected cells were seeded into 384-well microtiter plates at a density of 3,000 cells per well in HBSS supplemented with 5 mM HEPES, 0.1% (w/v) BSA or 0.1% (w/v) casein and 0.5 mM 3-isobutyl-1-methylxanthine. The cells were stimulated with different concentrations of peptide agonists for 40 min at RT. Eu-cAMP tracer and ULight^TM-anti-cAMP were then diluted by cAMP detection buffer and added to the plates separately to terminate the reaction. Plates were incubated at RT for 1 h and the fluorescence intensity measured at 620 nm and […] by an EnVision multilabel plate reader (PerkinElmer).
Background: Changes in cAMP serve as a functional read-out for many G protein-coupled receptors.

The target of experiment [3] is GCGR (Homo sapiens, UniProt P47871, W215A). The experiment is described as above. Also on record: V5 (C); 6×His (C); expressed in transfected cells; host or cells: HEK293T. The following applies: HEK-293T, GCGR W215A; HEK293T. Here is the method: as §1, §2
Experiment [4] deals with GCGR (Homo sapiens, UniProt P47871, W87A). The description is as above. Also on record: V5 (C); 6×His (C); expressed in transfected cells; host or cells: HEK293T. The following applies: HEK-293T, GCGR W87A; HEK293T. The protocol: as §1, §2
The target in experiment [5] is GCGR (Homo sapiens, UniProt P47871, K205A). The experiment is described as above. Set-up: V5 (C); 6×His (C); expressed in transfected cells; host or cells: HEK293T. The following applies: GCGR K205A, HEK293T. Here is the method: as §1, §2
Experiment [6] addresses GCGR (Homo sapiens, UniProt P47871, Y145A). The description is as above. Also on record: V5 (C); 6×His (C); expressed in transfected cells; host or cells: HEK293T. The following applies: HEK-293T, GCGR Y145A; HEK293T. Here is the method:
as §1, §2

Where [7] appears, read: read-out: cAMP pEC50 (converted).

Chain of GCGR (Homo sapiens, UniProt P47871, K205A) (P47871 26-477 K205A): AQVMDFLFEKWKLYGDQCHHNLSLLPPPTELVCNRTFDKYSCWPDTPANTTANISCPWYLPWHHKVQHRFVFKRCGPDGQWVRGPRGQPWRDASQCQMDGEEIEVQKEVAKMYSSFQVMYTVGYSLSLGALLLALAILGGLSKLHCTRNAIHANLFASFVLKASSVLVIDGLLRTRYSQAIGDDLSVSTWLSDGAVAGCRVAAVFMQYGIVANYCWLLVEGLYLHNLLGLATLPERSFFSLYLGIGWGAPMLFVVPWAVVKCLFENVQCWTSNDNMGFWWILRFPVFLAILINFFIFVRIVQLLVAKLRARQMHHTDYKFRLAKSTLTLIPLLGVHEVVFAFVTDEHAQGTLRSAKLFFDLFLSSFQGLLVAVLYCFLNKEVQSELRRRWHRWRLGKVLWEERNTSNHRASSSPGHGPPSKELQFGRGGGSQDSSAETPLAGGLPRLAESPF
Chain of GCGR (Homo sapiens, UniProt P47871, Q293A) (P47871 26-477 Q293A): as the sequence (P47871 26-477 K205A) above, with A180K, Q268A counted along it
Chain of GCGR (Homo sapiens, UniProt P47871, W87A) (P47871 26-477 W87A): as the sequence (P47871 26-477 K205A) above, with W62A, A180K counted along it
Chain of GCGR (Homo sapiens, UniProt P47871, Y145A) (P47871 26-477 Y145A): as the sequence (P47871 26-477 K205A) above, with Y120A, A180K counted along it
Chain of GCGR (Homo sapiens, UniProt P47871, W215A) (P47871 26-477 W215A): as the sequence (P47871 26-477 K205A) above, with A180K, W190A counted along it

For `CCCCCCCCCCCCCCCC(=O)N[C@@H](CCC(=O)NCCCC[C@H](NC(=O)[C@H](CC(=O)O)NC(=O)[C@H](CO)NC(=O)[C@@H](NC(=O)[C@H](Cc1ccccc1)NC(=O)[C@@H](NC(=O)CNC(=O)[C@H](CCC(N)=O)NC(=O)C(C)(C)NC(=O)[C@@H](N)Cc1c[nH]cn1)[C@@H](C)O)[C@@H](C)O)C(=O)N[C@@H](CO)C(=O)N[C@@H](CCCCN)C(=O)N[C@@H](Cc1ccc(O)cc1)C(=O)N[C@@H](CC(C)C)C(=O)N[C@@H](CC(=O)O)C(=O)N[C@@H](CCC(=O)O)C(=O)N[C@@H](CCCNC(=N)N)C(=O)N[C@@H](C)C(=O)N[C@@H](C)C(=O)N[C@@H](CCC(N)=O)C(=O)N[C@@H](CC(=O)O)C(=O)N[C@@H](Cc1ccccc1)C(=O)N[C@H](C(=O)N[C@@H](CCC(N)=O)C(=O)N[C@@H](Cc1c[nH]c2ccccc12)C(=O)N[C@@H](CC(C)C)C(=O)N[C@@H](CC(C)C)C(=O)N[C@@H](CC(=O)O)C(=O)NCC(=O)NCC(=O)N1CCC[C@H]1C(=O)N[C@@H](CO)C(=O)N[C@@H](CO)C(=O)NCC(=O)N[C@@H](C)C(=O)N1CCC[C@H]1C(=O)N1CCC[C@H]1C(=O)N1CCC[C@H]1C(=O)N[C@@H](CO)C(N)=O)C(C)C)C(=O)O` [Peptide 20], the EC50 in experiment [1] (setting [7]) was 3.72 nM; in experiment [2] (setting [7]), 0.00832 nM; in experiment [5] (setting [7]), 0.0132 nM. Further, the Emax in experiment [1] (HEK-293T) amounted to 75.1 ± 1.79%; in experiment [2] (HEK-293T), 99.5 ± 1.63%; in experiment [3] it was 99.6 ± 2.02%; in experiment [4], 98.1 ± 1.54%; in experiment [5] (HEK-293T) it was 101 ± 1.28%; in experiment [6], 103 ± 1.79%.
